The subject of the first test is HepG2. The test can be described thus: Hepatoprotective activity against aflatoxin B1 (10e-5 M) induced Hep G2 cells at a dose of 10 ug/ml. The format is functional, Homo sapiens.
`CC(=O)O[C@@H]1[C@H](OC(C)=O)C(C)(C)C[C@H]2C3=CCC4[C@@]5(C)CC[C@H](O)[C@](C)(CO)C5CC[C@@]4(C)[C@]3(C)CC[C@@]12C` (stereo partly drawn) had a Protection of 0%.

For the molecule `CC1(C)C[C@H]2C3=CC[C@@H]4[C@@]5(C)CC[C@H](O)[C@](C)(CO)[C@@H]5CC[C@@]4(C)[C@]3(C)CC[C@@]2(C)[C@@H](O)[C@@H]1O`, the Protection came out at 0%.

`CC1(C)C[C@H]2C3=CCC4[C@@]5(C)CC[C@H](O)[C@](C)(CO)C5CC[C@@]4(C)[C@]3(C)CC[C@@]2(C)C[C@@H]1O` (stereo partly drawn) came in with a Protection of 25%.

On to `CC1(C)C[C@H]2C3=CCC4[C@@]5(C)CC[C@H](O)[C@](C)(CO)C5CC[C@@]4(C)[C@]3(C)CC[C@@]2(C)C(=O)C1=O` (stereo partly drawn), for which the Protection came out at 131%.

`CC1(C)C[C@H]2C3=CCC4[C@@]5(C)CC[C@H](O)[C@](C)(CO)C5CC[C@@]4(C)[C@]3(C)CC[C@@]2(C)CC1=O` (stereo partly drawn) yielded a Protection of 37%.

`CC1(C)C[C@@H](O)[C@]2(C)CC[C@]3(C)C(=CCC4[C@@]5(C)CC[C@H](O)[C@](C)(CO)C5CC[C@]43C)[C@@H]2C1` (stereo partly drawn) returned a Protection of 14%.

Turning to `CC1(C)C[C@H]2C3=CC[C@@H]4[C@@]5(C)CC[C@H](O)[C@](C)(CO)[C@@H]5CC[C@@]4(C)[C@]3(C)CC[C@@]2(C)[C@H](O)[C@H]1O`, the Protection worked out at 0%.

With `CC1(C)C[C@H]2C3=CC[C@@H]4[C@@]5(C)CC[C@H](O)[C@](C)(CO)[C@@H]5CC[C@@]4(C)[C@]3(C)CC[C@@]2(C)[C@H](O)[C@@H]1O` [SOYASAPOGENOL A], the Protection was 0%.

Turning to `CC1(C)C[C@H]2C3=CCC4[C@@]5(C)CC[C@H](O)[C@](C)(CO)C5CC[C@@]4(C)[C@]3(C)CC[C@@]2(C)C[C@H]1O` (stereo partly drawn), the Protection was found to be 0%.

For the molecule `CC1(C)C[C@H]2C3=CCC4[C@@]5(C)CC[C@H](O)[C@](C)(CO)C5CC[C@@]4(C)[C@]3(C)CC[C@@]2(C)C(=O)[C@@H]1O` (stereo partly drawn), the Protection is listed as 107%.

Consider `CO[C@@H]1[C@H](OC)C(C)(C)C[C@H]2C3=CCC4[C@@]5(C)CC[C@H](O)[C@](C)(CO)C5CC[C@@]4(C)[C@]3(C)CC[C@@]12C` (stereo partly drawn), for which the Protection is reported as 0%.

For the molecule `CC(=O)OC[C@]1(C)C2CC[C@]3(C)C(CC=C4[C@@H]5CC(C)(C)[C@@H](O)[C@@H](O)[C@]5(C)CC[C@]43C)[C@@]2(C)CC[C@@H]1OC(C)=O` (stereo partly drawn), the Protection came out at 0%.

`CO[C@@H]1[C@H](O)C(C)(C)C[C@H]2C3=CCC4[C@@]5(C)CC[C@H](O)[C@](C)(CO)C5CC[C@@]4(C)[C@]3(C)CC[C@@]12C` (stereo partly drawn) came in with a Protection of 20%.

In turn, `CC1(C)C[C@H]2C3=CC[C@@H]4[C@@]5(C)CC[C@H](O)[C@](C)(CO)[C@@H]5CC[C@@]4(C)[C@]3(C)CC[C@@]2(C)[C@@H](O)[C@H]1O` returned a Protection of 8%.

`COC[C@]1(C)C2CC[C@]3(C)C(CC=C4[C@@H]5CC(C)(C)[C@@H](O)[C@@H](O)[C@]5(C)CC[C@]43C)[C@@]2(C)CC[C@@H]1OC` (stereo partly drawn) registered a Protection of 7%.

With `CO[C@H]1[C@@H](O)[C@]2(C)CC[C@]3(C)C(=CCC4[C@@]5(C)CC[C@H](O)[C@](C)(CO)C5CC[C@]43C)[C@@H]2CC1(C)C` (stereo partly drawn), the Protection was 8%.

Take `CC(=O)O[C@H]1[C@@H](O)[C@]2(C)CC[C@]3(C)C(=CCC4[C@@]5(C)CC[C@H](O)[C@](C)(CO)C5CC[C@]43C)[C@@H]2CC1(C)C` (stereo partly drawn): the Protection came out at 25%.

The next test has as its system HepG2. Description: Hepatoprotective activity against aflatoxin B1 (10e-5 M) induced Hep G2 cells at a dose of 20 ug/ml. The format is functional, Homo sapiens.
`CC1(C)[C@@H](O[C@H]2O[C@H](C(=O)O)[C@@H](O)[C@H](O)[C@H]2O[C@@H]2O[C@H](C(=O)O)[C@@H](O)[C@H](O)[C@H]2O)CC[C@]2(C)[C@H]3C(=O)C=C4[C@@H]5C[C@@](C)(C(=O)O)CC[C@]5(C)CC[C@@]4(C)[C@]3(C)CC[C@@H]12` [GLYCYRRHIZIN] returned a Protection of 15%.
